# Data as given in paper PMC12381781, “Structural and functional insights into the selective inhibition of mutant tau aggregation by purpurin and oleocanthal in frontotemporal dementia” (Protein Science : A Publication of the Protein Society, 2025).
# Read-outs that look alike come from different tables or passages of the source.
# How the values were obtained:
# R2R3 (N279K) tau peptide = R2R3 (N279K) tau peptide (Homo sapiens, UniProt P10636, N596K); experiment: SPR titration cycle kinetics, immobilized R2R3 (N279K) peptide; type: binding
# Experimental: SPR experiments were conducted using the Sierra® SPR‐24 Pro system (Bruker Daltonics, Bremen, Germany), featuring a gold‐coated microfluidic array (24 detection spots, 3 × 8 format). Data acquisition and kinetic analysis were performed using SPR Analyzer 4 software.
# All experiments were conducted at 25°C using PBS (pH 7.4) supplemented with 0.05% Tween‐20 and 5% DMSO as the running buffer to ensure assay reproducibility. Assay components, including 96‐well microtiter plates (Part # 1862984; Burker) and Microplate and Reservoir Sealer (Part #1862985; Burker), were used for sample handling and were compatible with the Sierra SPR®‐24 Pro system (Bruker Daltonics, Billerica, MA, USA).
# WT and mutant (P301L, V287I, and N279K) tau peptides were dissolved in 10 mM sodium acetate buffer (pH 5.0; Burker) and immobilized onto High‐Capacity Amine Sensor Surfaces (Part #1862614; Bruker) using the Amine Coupling Kit (Part #1862634; Bruker). The sensor surface was preconditioned with a Surface Elution Buffer (Part #1862656; Bruker Daltonics) and 0.1M HCl to remove contaminants and improve binding specificity.
# The surface was activated using 400 mM 1‐ethyl‐3‐(3‐dimethylaminopropyl) carbodiimide (Burker) and 50 mM N‐hydroxysuccinimide (Burker), enabling covalent attachment of tau peptides. Unreacted binding sites were blocked with 1M ethanolamine‐HCl (pH 8.5; Burker) to minimize nonspecific interactions. For each experiment, specific sensor spots (A/B/C) on channels 1–8 were designated for tau‐analyte interactions, with corresponding reference spots on the same channel for baseline correction. DMSO calibration solutions (4.6%, 4.8%, 5%, 5.2%, and 5.4%) were prepared for double referencing to compensate for DMSO solvent effects.
# PUR and OLC were prepared in PBS (pH 7.4) supplemented with 0.05% Tween‐20 and 5% DMSO. Compound interactions with tau peptides were pre‐screened using a concentration range of 1–100 μM, and subsequent binding kinetics were evaluated at optimized concentrations. For kinetic studies, PUR was tested at […], while OLC was tested at 25–100 μM using two‐fold serial dilutions. Each analyte was sequentially injected, and association and dissociation phases were monitored to determine kinetic parameters.
# SPR binding kinetics were assessed using the titration cycle kinetics (TCK) assay, which included consecutive association phases followed by a single dissociation phase. Pre‐assay simulations using the Kinetic Simulator feature of SPR Analyzer 4 software were used to optimize analyte concentration ranges and association/dissociation times. A reference blank injection was included for double referencing, and a single dissociation curve was recorded for the highest analyte concentration.
# Sensorgrams were analyzed using the Kinetic Titration model, which was integrated into the global kinetic fitting model of the SPR Analyzer 4 software. This approach allowed for baseline correction and improved the reliability of kinetic parameters, including the Kon, Koff, and KD.
# TCK‐derived kinetic parameters were compared across multiple runs and confirmed using Multi Injection Cycle Kinetics to validate reproducibility and accuracy.
# [1] = tested on: preformed R2R3 (P301L) fibrils; experiment: Elongation of preformed R2R3 (P301L) fibrils, ThT; type: biochemical; settings: R2R3 P301L pre-aggregated 24 h, compound 10 μM; for fibril elongation, aggregation post-treatment as percentage of control (AUC after compound addition): further 24–30 h; for ThT-stained aggregates from post-treatment samples, confocal imaging: further 24 h
# Experimental: Peptides were pre‐aggregated for 24 h with aggregation kinetics monitored by ThT fluorescence, after which 10 μM PUR or OLC was added, followed by an additional 24–30 h of incubation (Figure 4a). Aggregation kinetics was monitored by ThT fluorescence, and elongation was quantified as the AUC following compound addition, normalized to each replicate's maximum pre‐treatment fluorescence (Figure 4b). […] WT peptide fibril elongation was reduced to 15.5 ± 2.8% (PUR) and 45.2 ± 3.2% (OLC), and P301L peptide fibril elongation was limited to 31.8 ± 0.6% (PUR) and 85.6 ± 2.2% (OLC) (Figure 4b). Fluorescence microscopy imaging further confirmed the presence of reduced ThT‐positive aggregates following the addition of PUR and OLC (Figure S12). Similar inhibition trends, with PUR outperforming OLC, were also observed for V287I and N279K peptides (Figure S12).
# FIGURE 4 Purpurin (PUR) and oleocanthal (OLC) inhibit elongation of preformed wild‐type (WT) and P301L tau fibrils. (a) The thioflavin T (ThT) fluorescence kinetics of pre‐aggregated R2R3 (WT and P301L) tau peptides treated with PUR or OLC (10 μM). Peptides were first allowed to aggregate for 24 h, followed by compound addition and continued incubation for an additional 24–30 h. Vertical dashed lines indicate the time point of compound addition. Curves are normalized to each replicate's maximum pre‐treatment ThT fluorescence. Source data are provided in the Data Availability Statement section. Mean ± SEM (n ≥ 3). (b) Aggregation levels post‐treatment, expressed as a percentage of control (untreated fibrils), calculated from the area under the curve after compound addition. Mean ± SEM (n ≥ 3). ***p < 0.001, **p < 0.01, one‐way ANOVA (Tukey's post hoc test).
# Figure S12. Confocal imaging of ThT-stained aggregates from post-treatment samples in Figure 4. R2R3 (WT and P301L) tau peptides were incubated for 24 h to allow initial aggregation, followed by the addition of PUR or OLC (10 µM). After a further 24 h, reaction mixtures from compound-treated wells were collected, embedded in 0.05% low-melting agarose, and processed for imaging as described in Figure S11. […] Scale bar: 50 μm.
# R2R3 (N279K) tau peptide, sequence (P10636 592-653 N596K): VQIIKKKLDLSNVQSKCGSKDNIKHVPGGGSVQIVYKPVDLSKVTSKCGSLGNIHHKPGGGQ
SMILES,Kd (R2R3 (N279K) tau peptide) [µM],"kon (R2R3 (N279K) tau peptide; SPR, R2R3 N279K) [M⁻¹ s⁻¹]","koff (R2R3 (N279K) tau peptide; SPR, R2R3 N279K, read-out: Koff) [s⁻¹]","fibril elongation, aggregation post-treatment as percentage of control (AUC after compound addition) [1] [%]","ThT-stained aggregates from post-treatment samples, confocal imaging [1]","Kon (R2R3 (N279K) tau peptide; SPR, R2R3 N279K) [M⁻¹ s⁻¹]","koff (R2R3 (N279K) tau peptide; SPR, R2R3 N279K) [s⁻¹]","Kd (R2R3 (N279K) tau peptide; SPR, R2R3 N279K peptide immobilized, 25°C, PBS pH 7.4, read-out: KD) [µM]"
"O=C1c2ccccc2C(=O)c2c(O)c(O)cc(O)c21 [PUR, purpurin]",4.22,70.3,0.000297,31.8 ± 0.6,either a complete absence or a marked reduction in ThT signal,–,–,–
"C/C=C(/C=O)[C@@H](CC=O)CC(=O)OCCc1ccc(O)cc1 [OLC, oleocanthal]",–,–,–,85.6 ± 2.2,either a complete absence or a marked reduction in ThT signal,34.60,6.87e-05,1.98
